Key:
[1] = test system: zebrafish embryos; test: Whole mount in situ hybridization (WISH) of snail, versican and cdh5 in zebrafish embryos; type: in vivo
Method: EGFR inhibitor AG 1478 (CalBiochem) was dissolved in DMSO and stocked as 1 mM at -20° C. […] Before use, the solution was re-dissolved at 65° C. for 1 h. In the control group, 100 embryos were placed in a 9 cm dish filled with a volume of 30 ml embryo medium containing 0.2 mM 1-phenyl-2-thio-urea (Sigma). […] Long-term treatment during 12-72 hpf included the specification stage of valve formation at 36-55 hpf and the invagination stage of valve formation at 55 hpf. Treatment during 12-48 hpf was used to examine the gene markers versican and cdh5 which expressed at the AVC. […] During mouse embryonic valve formation, Snail (Snail) in Snail family acts as the […] of cdh5 that inhibit the transcription of cdh5. […] WISH was performed as previously described (Nucleic Acids Res 2010; 38:4384-93). Riboprobe of cdh5 was prepared by cloning its partial DNA fragment, while riboprobe of versican was provided by […] (Nature 2003; 425:633-7). […] FIG. 7H).

[2] = test system: EGFR; test: EGFR signaling in zebrafish embryos (EGFR dimers, EGFR phosphorylation, GSK3β); type: in vivo
[3] = test system: 4T-1 cells; test: Level of AKT, pAKT, ERK and p-ERK in treated cells; type: cell-based, mouse; conditions: 15 μM, vs control cells
Text: (§1) […]. The EGFR signaling regulates cell proliferation through activates EGFR's intrinsic kinase and leads to activation of several downstream intracellular signaling pathways, including rat sarcoma-MAPK kinase (MEK)-extracellular-related kinase (ERK) and phosphoinositide 3-kinase (PI3K)-Akt pathways. It was reported the opposing effects of V1 and V2 on cell proliferation. […] […].

[4] = test system: JC; test: Level of AKT, pAKT, ERK and p-ERK in treated cells; type: cell-based, mouse; conditions: 15 μM, vs control cells
Text: as §1

[5] = test system: B16OVA cells
Method: (§2) For wound healing assays, B16OVA, JC or 4T-1 cells (1×10^6) were seeded onto 6-well plates in DMEM/RPMI 1640 medium and maintained at 37° C. until they reached 95% confluence. The monolayer of cells was wounded by a sterile pipette tip to create a 1-mm cell-free path. Culture medium was removed and the samples were washed with PBS, followed by culturing in DMEM/RPMI 1640 medium with 10 μg/ml of the Mitomycin C. Cells were photographed under a low-magnification microscope. […] The distances between the wounding centre and the front of the migrating cells (vertical axis) were measured for statistical analysis. […] To determine cell migration in the absence of cell proliferation, Mitomycin C was used to block mitosis and thus allowed the analysis of cell migration in the absence of cell proliferation.

[6] = test system: B16OVA; test: Level of AKT, pAKT, ERK and p-ERK in treated cells; type: cell-based, murine; conditions: 15 μM, vs control cells
Text: as §1

[7] = test system: B16OVA; test: Versican V1, V2, Snail and E-cadherin protein level in treated cells; type: cell-based, murine; conditions: 15 μM for 24 hr
Text: (§3) […]. […] […]. […] […].

[8] = test system: 4T-1 cells; test: as above; type: cell-based, mouse; conditions: 15 μM for 24 hr
Text: as §3

[9] = test system: JC; test: as above; type: cell-based, mouse; conditions: 15 μM for 24 hr
Text: as §3

[10] = test system: JC cell; test: MTT cell survival assay; type: cell-based, mouse; conditions: 24 hr
Method: (§4) […]. Data is represented as a percentage of the DMSO control (DMSO), which is set to 100% and is expressed as mean±SEM (n=3).
(§5) It is well known that the Versican V1 increases EGFR signaling. […]. […]. Cells were plated at a density of 1×10^4 per well in 96-well plates and incubated for 12-16 h to allow cells to adhere. After 24 h, 0.5 mg/mL 3-(4,5-dimethylthiazol-2-yl)-2,5-diphenyltetrazolium bromide (MTT; Sigma) was added, and the cells were incubated for 4 h. Following incubation, each well was added 100 μl of 10% SDS/0.01N HCl solution and shaking for 5 min. Then, the absorbance was measured at 570 nm. Results were representative of three independent experiments, each done in quintuplicate. […].

[11] = test system: S-vcanb; test: Western blot of S-vcanb protein in zebrafish embryos; type: in vivo; conditions: treated embryos
[12] = test system: zebrafish embryos Tg(cmlc2:HcRFP); test: In vivo observation of cardiac valve development in zebrafish embryos by HGM/2PF
Method: The zebrafish AB strain, as well as transgenic lines Tg(cmlc2:HcRFP) and Tg(cmlc2:EGFP), were cultured as previously described. Heart formation was observed under fluorescent stereomicroscopy (MZ Leica). […] The excitation source was a femtosecond Cr:forsterite laser with an output wavelength of 1230 nm. Second harmonic generation (SHG) and third harmonic generation (THG; J Struct Biol. 2004 147: 19-30) were applied to observe valve development in transgenic zebrafish Tg(cmlc2:HcRFP) in vivo. RFP marked the myocardial cells, while THG (410 nm) marked all cells in yellow, and SHG (615 nm) marked the skeletal and cardiac muscles in green. Paraffin sectioning with Hematoxylin and Eosin (H&E) staining was also used to perform histochemical analysis of the heart.
EGFR inhibitor AG 1478 (CalBiochem) was dissolved in DMSO and stocked as 1 mM at −20° C. […] Before use, the solution was re-dissolved at 65° C. for 1 h. In the control group, 100 embryos were placed in a 9 cm dish filled with a volume of 30 ml embryo medium containing 0.2 mM 1-phenyl-2-thio-urea (Sigma). […] Long-term treatment during 12-72 hpf included the specification stage of valve formation at 36-55 hpf and the invagination stage of valve formation at 55 hpf. Treatment during 12-48 hpf was used to examine the gene markers versican and cdh5 which expressed at the AVC.
By using HGH/2 PF to examine the zebrafish embryos derived from transgenic line Tg(cmlc2:HcRFP), the dynamics of valve development in vivo could easily be observed. For example, at 48 hpf, there was a single layer of cells in the endocardium at the AVC (FIG. 1A). […] Finally, at 87 hpf, the elongated structure was protruding towards the ventricle (FIG. 1C).

[13] = test system: B16OVA; test: MTT cell survival assay; type: cell-based, murine; conditions: 24 hr
Method: as §4, §5

[14] = test system: JC cells; test: Tumor growth in Balb/c mice after SC injection of treated JC cells; type: in vivo; conditions: tumors from treated JC cells, vs control group and Mitomycin C-treated group
Text: […]. […] For each group of tumors, the average volume for 3 tumors is plotted. Bars=95% confidence intervals.
Balb/c mice were inoculated by SC injection into the flank with contorl-Mitomycin C- or Amiodarone-treated JC cells. Each group had 3 mice, which were assigned to experimental groups randomly. All the other mice were sacrificed 2 weeks after treatment. […].

[15] = test system: JC cells; conditions: Mitomycin C alone, 10 μg/ml
Method: as §2

[16] = test system: Cdh5; test: Western blot of Cdh5 protein in zebrafish embryos; type: in vivo; conditions: 1.5 ng injected at one cell stage, 72 hpf embryos
Method: Cdh5 antibody was used to detect the amount of Cdh5 protein expression by Western blot. The embryos were dechorionated and deyolked with two extra washing steps as described in Link et al. (BMC Dev Biol 2006; 6:1). Deyolked samples were dissolved in 2 μl of 2×SDS sample buffer for each embryo and incubated for 5 min at 95[…]. After full-speed centrifugation for 1 min in a microcentrifuge to remove insoluble particles, total proteins extracted from embryos were analyzed on a 12% SDS-PAGE gel, and Western blot analysis was performed (J Biol Chem 2011; 286:6855-64) using antiserum against mouse Cdh5 (15; 1:10,000). Anti-α-tubulin and anti-β-actin served as a protein loading control. Knockdown experiments were performed as follows: morpholino nucleic acid oligomers (MOs) were purchased from GeneTools (USA): vcana-MO ([…], SEQ ID NO: 1); s-vcanb-MO ([…], SEQ ID NO: 2); snai1b-MO ([…], SEQ ID NO: 3) (Development 134, 4073-4081, 2007); cdh5-MO ([…], SEQ ID NO: 4) (Developmental Dynamics. 2004. 231, 204-213; PloS One 2010. 5, e8807); troponin T2a, cardiac-MO (5′-[…]-3′, SEQ ID NO: 5) (Nat. Genet. 2002. 31, 106-110); and standard control-MO ([…], SEQ ID NO: 6). […]

Q: Which “cdh5 expression at the heart field” value ([1]; 7 μM, embryos at 55 to 72 hpf) does the source give for `COc1cc2ncnc(Nc3cccc(Cl)c3)c2cc1OC` [AG1478] here?
A: ectopic expression

Q: And the snail1b expression ([1]; 7 μM, embryos at 55 to 72 hpf)?
A: lost

Q: What about the “activity of GSK3β” value ([2]; AG1478 treatment, 7 μM) of the same compound?
A: increased significantly

Q: What about the “total level of GSK3β” value ([2]; AG1478 treatment, 7 μM) of the same compound?
A: unchanged

Q: How did the “snai1b mRNA expression at the AVC” value ([1]; 15 μM, treated during 55-72 hpf, observed at 72 hpf) turn out when `CCCCc1oc2ccccc2c1C(=O)c1cc(I)c(OCCN(CC)CC)c(I)c1` [Amiodarone] was run?
A: lost and decreased or even disappeared

Q: What about the “vcana and s-vcanb expression at the heart field” value ([1]; 72 hpf embryos) of the same compound?
A: induced

Q: And the “snai1a mRNA expression in the heart” value ([1]; treated during 55-72 hpf, observed at 72 hpf)?
A: still was not expressed in the heart

Q: And the “phosphorylated AKT” value [3]?
A: reduced greatly

Q: And the “phosphorylated ERK42/44” value [3]?
A: reduced greatly

Q: What about the “total level of AKT” value [3] of the same compound?
A: unchanged

Q: And the “total level of ERK” value [3]?
A: unchanged

Q: What about the “phosphorylated AKT” value [4] of the same compound?
A: reduced greatly

Q: What about the “phosphorylated ERK42/44” value [4] of the same compound?
A: reduced greatly

Q: What about the “total level of AKT” value [4] of the same compound?
A: unchanged

Q: What about the “total level of ERK” value [4] of the same compound?
A: unchanged

Q: And the morphological change ([5]; cells at a growing phase, vs control cells)?
A: appeared more stripe and spread out than control cells

Q: What about the “phosphorylated AKT” value [6] of the same compound?
A: reduced greatly

Q: And the “phosphorylated ERK42/44” value [6]?
A: reduced greatly

Q: And the “total level of AKT” value [6]?
A: unchanged

Q: And the “total level of ERK” value [6]?
A: unchanged

Q: What about the E-cadherin protein level [7] of the same compound?
A: increased significantly

Q: What about the Snail protein level [7] of the same compound?
A: greatly reduced

Q: What about the “Versican V1 expression” value [7] of the same compound?
A: reduced

Q: And the “Versican V2 expression” value ([7]; vs control cells)?
A: increased

Q: What about the E-cadherin protein level [8] of the same compound?
A: increased significantly

Q: What about the Snail protein level [8] of the same compound?
A: greatly reduced

Q: And the “Versican V1 expression” value [8]?
A: no difference

Q: And the “Versican V2 expression” value ([8]; vs control cells)?
A: increased

Q: And the E-cadherin protein level [9]?
A: increased significantly

Q: What about the Snail protein level [9] of the same compound?
A: greatly reduced

Q: And the “Versican V1 expression” value [9]?
A: reduced

Q: And the “Versican V2 expression” value ([9]; vs control cells)?
A: increased

Q: What about the “cell survival (MTT)” value ([10]; 15 μM) of the same compound?
A: did not influence

Q: What about the “cell survival (MTT)” value ([10]; 10˜30 μM) of the same compound?
A: does not influence

Q: What about the EGFR dimeration ([2]; 72 hpf treated embryos) of the same compound?
A: increased

Q: And the “activity of GSK3β” value ([2]; Amiodarone treated embryos)?
A: increased significantly

Q: What about the “total level of GSK3β” value ([2]; Amiodarone treated embryos) of the same compound?
A: unchanged

Q: What about the “phosphorylation of EGFR (Tyr-845)” value ([2]; treated embryos, dosage dependent manner) of the same compound?
A: reduced

Q: What about the “expression of S-vcanb protein” value [11] of the same compound?
A: increased

Q: And the “endocardial cells at the AVC” value ([12]; 15 μM during 12-48 hpf)?
A: no difference between treated and untreated embryos

Q: And the valve structure ([12]; 15 μM during 12-72 hpf)?
A: only a small aggregation of cells were seen at the upper valve site

Q: What about the “cellular aggregation at the valve region” value ([12]; 15 μM during 12-87 hpf, compared to untreated embryos) of the same compound?
A: almost no cellular aggregation at the valve region

Q: What about the “cell survival (MTT)” value ([13]; 15 μM) of the same compound?
A: did not influence

Q: And the “cell survival (MTT)” value ([13]; 10˜30 μM)?
A: does not influence

Q: What about the tumor growth [14] of the same compound?
A: grew slower

Q: What does the source list for `CO[C@@]12[C@H](COC(N)=O)C3=C(C(=O)C(C)=C(N)C3=O)N1C[C@@H]1N[C@@H]12` [Mitomycin C]?
A: time course of wound closure ([5]; Mitomycin C alone, 10 μg/ml): did not affect the time course of wound closure; time course of wound closure [15]: did not affect the time course of wound closure

Q: “snail1b-MO: morpholino nucleic acid oligomer TTGACAAGA AATGAGCGTGGCATCT, SEQ ID NO: 3 (antisense TTGACAAGAAATGAGCGTGGCATCT; all phosphorodiamidate morpholino (PMO))” was tested. Which “expression of Cdh5 protein relative to wild-type” value [16] did it give?
A: 1.5 fold

— patent publication US20140005260A1 (TRI-SERVICE GENERAL HOSPITAL, priority 2012, published 2014)
